Data: patent publication US8980887B2, “2-aryl imidazo[1,2-a]pyridine-3-acetamide derivatives, preparation methods and uses thereof” (Institute of Pharmacology, priority 2010, dated 2015)

Experiments:
[1] = molecular target: TSPO protein separated and purified from rat heart (Rattus norvegicus (Rat), UniProt P16257); assay: TSPO and radioligand (3H-PK11195) competitive binding test; details: for Inhibition rate (%): n = 6 times; for IC50 / Ki: 9 gradient concentrations, plotting and fitting
Procedure: In the present test, TSPO protein separated and purified from rat heart was used as screening target, via competitive binding test with radioligand (^3H-PK11195), to screen TSPO ligand compounds.
Wister rats, 220-260 g, female and male, were sacrificed by decapitation and the rat heart were rapidly separated, weighed and to which homogenized in 10 times volume of Tris-HCl buffer solution (50 mM Tris-HCl, 5 mM MgCl2, 1 mM EDTA, 0.5% (W/V) BSA, 1 mM PMSF, 3 μg/ml proteinase inhibitor, 0.1% NaN3, 0.32M sucrose, pH 7.4) at 15,000 rpm for 30 s, total 5 times. The homogenate was centrifuged under 1000×g for 10 minutes and the supernatant was then centrifuged under 30000×g for 20 minutes. The precipitate was collected, and resuspended with 10 times volume of Tris-HCl buffer solution (pH 7.4) relative to the original weight, then centrifuged under 30000×g for 20 minutes. The precipitate was washed with the same buffer solution, centrifuged under 30000×g for 20 minutes and the precipitate was suspended with the above buffer solution. After sub-packaged (the whole operation procedures were performed under ice bath), the product was stored at −80° C.
3) Competitive Binding Test of Drug to the Receptor (Rat Heart TSPO) and Radioligand (^3H-PK11195):
(1) tubes were placed in reaction condition of 30° C.
(2) all tubes were added with 20 μg of receptor protein in order;
(3) the test tubes were added in order with 20 μL of drugs in certain concentrations;
(4) the non-specific binding tubes were added with 20 μL of non-tagged ligand (PK11195), the final concentration of the non-tagged ligand was 0.1 mM, pre-reacted for 30 min;
(5) all tubes were added in order with 25 μL ^3H-PK11195, the final concentration of the labeled ligand was 1.5 nM;
(6) Tris-HCl Buffer pH7.4 was used to complement the reaction volumes of all tubes to reach 200 μL;
(7) the reaction was performed under 30° C. reaction condition for 1 h;
(8) Then samples were applied to 49-type glass fibre filter, vacuum suction filtered, then washed with 2 ml ice-cold Tris-HCl buffer solution (50 mM Tris-HCl buffer solution, 1 mM EDTA, 5 mM MgCl2, 1 mM PMSF, 0.1% NaN3, 3 μg/ml proteinase inhibitor, pH 7.4). The filter was dried and placed in a scintillation vial with 1 ml of scintillation fluid. The radio-activity was measured by a scintillation counter.

For `CCN(Cc1ccccc1)C(=O)Cc1c(-c2ccc(Cl)cc2)nc2cc(C)ccn12` [Compound 1, N-benzyl-N-ethyl-2-(4-chlorophenyl)-7-methylimidazo[1,2-a]pyridine-3-acetamide], the “Inhibition rate (%)” value ([1]; 1 × 10^−5M) was 100%, the “Inhibition rate (%)” value ([1]; 1 × 10^−7M) was 87% and the “Inhibition rate (%)” value ([1]; 1 × 10^−9M) was 12%. The melting point was 192 to 193 °C.
With `CCN(Cc1ccccn1)C(=O)Cc1c(-c2ccc(Cl)cc2)nc2cc(C)ccn12.Cl` [Compound 2, N-ethyl-N-(2-pyridinylmethyl)-2-(4-chlorophenyl)-7-methylimidazo[1,2-a]pyridine-3-acetamide.hydrochloride] the “Inhibition rate (%)” value ([1]; 1 × 10^−5M) was 100%, the “Inhibition rate (%)” value ([1]; 1 × 10^−7M) was 59% and the “Inhibition rate (%)” value ([1]; 1 × 10^−9M) was 0%. The melting point was 178 to 180 °C.
In the case of `CCN(Cc1cccnc1)C(=O)Cc1c(-c2ccc(Cl)cc2)nc2cc(C)ccn12.Cl` [Compound 3, N-ethyl-N-(3-pyridinylmethyl)-2-(4-chlorophenyl)-7-methylimidazo[1,2-a]pyridine-3-acetamide.hydrochloride], the “Inhibition rate (%)” value ([1]; 1 × 10^−5M) is reported as 100%, the “Inhibition rate (%)” value ([1]; 1 × 10^−7M) is reported as 25% and the “Inhibition rate (%)” value ([1]; 1 × 10^−9M) is reported as 0%. For the same compound, the melting point was 236 to 238 °C.
For `CCN(Cc1ccncc1)C(=O)Cc1c(-c2ccc(Cl)cc2)nc2cc(C)ccn12.Cl` [Compound 4, N-ethyl-N-(4-pyridinylmethyl)-2-(4-chlorophenyl)-7-methylimidazo[1,2-a]pyridine-3-acetamide.hydrochloride], the “Inhibition rate (%)” value ([1]; 1 × 10^−5M) was 100%, the “Inhibition rate (%)” value ([1]; 1 × 10^−7M) was 50% and the “Inhibition rate (%)” value ([1]; 1 × 10^−9M) was 0%. The melting point was 245 to 247 °C.
In the case of `COCCN(Cc1ccccn1)C(=O)Cc1c(-c2ccc(Cl)cc2)nc2cc(C)ccn12.Cl` [Compound 5, N-(2-methoxyethyl)-N-(2-pyridinylmethyl)-2-(4-chlorophenyl)-7-methylimidazo[1,2-a]pyridine-3-acetamide.hydrochloride], the “Inhibition rate (%)” value ([1]; 1 × 10^−5M) is reported as 100%, the “Inhibition rate (%)” value ([1]; 1 × 10^−7M) is reported as 43% and the “Inhibition rate (%)” value ([1]; 1 × 10^−9M) is reported as 0%. It also gave a melting point of 238 to 239 °C.
With `COCCN(Cc1cccnc1)C(=O)Cc1c(-c2ccc(Cl)cc2)nc2cc(C)ccn12.Cl` [Compound 6, N-(2-methoxyethyl)-N-(3-pyridinylmethyl)-2-(4-chlorophenyl)-7-methylimidazo[1,2-a]pyridine-3-acetamide.hydrochloride] the “Inhibition rate (%)” value ([1]; 1 × 10^−5M) was 70%, the “Inhibition rate (%)” value ([1]; 1 × 10^−7M) was 0% and the “Inhibition rate (%)” value ([1]; 1 × 10^−9M) was 0%. For the same compound, the melting point was 234 to 235 °C.
With `CCN(Cc1ccccc1)C(=O)Cc1c(-c2ccc(Cl)c(Cl)c2)nc2cc(C)ccn12` [Compound 7, N-benzyl-N-ethyl-2-(3,4-dichlorophenyl)-7-methylimidazo[1,2-a]pyridine-3-acetamide] the “Inhibition rate (%)” value ([1]; 1 × 10^−5M) was 99%, the “Inhibition rate (%)” value ([1]; 1 × 10^−7M) was 72% and the “Inhibition rate (%)” value ([1]; 1 × 10^−9M) was 10%. The IC50 [1] was 116 nM, the Ki [1] was 49.2 nM and the melting point was 180 to 182 °C.
In the case of `CCN(Cc1cccnc1)C(=O)Cc1c(-c2ccc(Cl)c(Cl)c2)nc2cc(C)ccn12.Cl` [Compound 9, N-ethyl-N-(3-pyridinylmethyl)-2-(3,4-dichlorophenyl)-7-methylimidazo[1,2-a]pyridine-3-acetamide.hydrochloride], the “Inhibition rate (%)” value ([1]; 1 × 10^−5M) is reported as 86%, the “Inhibition rate (%)” value ([1]; 1 × 10^−7M) is reported as 8% and the “Inhibition rate (%)” value ([1]; 1 × 10^−9M) is reported as 0%. It also gave a melting point of 245 to 248 °C.
For `COCCN(Cc1cccnc1)C(=O)Cc1c(-c2ccc(Cl)c(Cl)c2)nc2cc(C)ccn12.Cl` [Compound 12, N-(2-methoxyethyl)-N-(3-pyridinylmethyl)-2-(3,4-dichlorophenyl)-7-methylimidazo[1,2-a]pyridine-3-acetamide.hydrochloride], the “Inhibition rate (%)” value ([1]; 1 × 10^−5M) was 80%, the “Inhibition rate (%)” value ([1]; 1 × 10^−7M) was 20% and the “Inhibition rate (%)” value ([1]; 1 × 10^−9M) was 0%. It also gave a melting point of 235 to 237 °C.
With `CCN(Cc1ccccn1)C(=O)Cc1c(-c2ccc(C)cc2)nc2cc(C)ccn12.Cl` [Compound 14, N-ethyl-N-(2-pyridinylmethyl)-2-(4-methylphenyl)-7-methylimidazo[1,2-a]pyridine-3-acetamide.hydrochloride] the “Inhibition rate (%)” value ([1]; 1 × 10^−5M) was 97%, the “Inhibition rate (%)” value ([1]; 1 × 10^−7M) was 66% and the “Inhibition rate (%)” value ([1]; 1 × 10^−9M) was 14%. For the same compound, the IC50 [1] was 91 nM, the Ki [1] was 38.7 nM and the melting point was 218 to 220 °C.
In the case of `CCN(Cc1cccnc1)C(=O)Cc1c(-c2ccc(C)cc2)nc2cc(C)ccn12.Cl` [Compound 15, N-ethyl-N-(3-pyridinylmethyl)-2-(4-methylphenyl)-7-methylimidazo[1,2-a]pyridine-3-acetamide.hydrochloride], the “Inhibition rate (%)” value ([1]; 1 × 10^−5M) is reported as 90%, the “Inhibition rate (%)” value ([1]; 1 × 10^−7M) is reported as 15% and the “Inhibition rate (%)” value ([1]; 1 × 10^−9M) is reported as 0%. For the same compound, the melting point was 251 to 253 °C.
In the case of `CCN(Cc1ccncc1)C(=O)Cc1c(-c2ccc(C)cc2)nc2cc(C)ccn12.Cl` [Compound 16, N-ethyl-N-(4-pyridinylmethyl)-2-(4-methylphenyl)-7-methylimidazo[1,2-a]pyridine-3-acetamide.hydrochloride], the “Inhibition rate (%)” value ([1]; 1 × 10^−5M) is reported as 72%, the “Inhibition rate (%)” value ([1]; 1 × 10^−7M) is reported as 41% and the “Inhibition rate (%)” value ([1]; 1 × 10^−9M) is reported as 0%. For the same compound, the melting point was 253 to 255 °C.
For `COCCN(Cc1ccccn1)C(=O)Cc1c(-c2ccc(C)cc2)nc2cc(C)ccn12.Cl` [Compound 17, N-(2-methoxyethyl)-N-(2-pyridinylmethyl)-2-(4-methylphenyl)-7-methylimidazo[1,2-a]pyridine-3-acetamide.hydrochloride], the “Inhibition rate (%)” value ([1]; 1 × 10^−5M) was 83%, the “Inhibition rate (%)” value ([1]; 1 × 10^−7M) was 9% and the “Inhibition rate (%)” value ([1]; 1 × 10^−9M) was 0%. The melting point was 239 to 240 °C.
In the case of `COCCN(Cc1cccnc1)C(=O)Cc1c(-c2ccc(C)cc2)nc2cc(C)ccn12.Cl` [Compound 18, N-(2-methoxyethyl)-N-(3-pyridinylmethyl)-2-(4-methylphenyl)-7-methylimidazo[1,2-a]pyridine-3-acetamide.hydrochloride], the “Inhibition rate (%)” value ([1]; 1 × 10^−5M) is reported as 69%, the “Inhibition rate (%)” value ([1]; 1 × 10^−7M) is reported as 32% and the “Inhibition rate (%)” value ([1]; 1 × 10^−9M) is reported as 0%. The melting point was 224 to 226 °C.
For `CCN(Cc1ccccc1)C(=O)Cc1c(-c2ccc(OC)cc2)nc2cc(C)ccn12` [Compound 19, N-benzyl-N-ethyl-2-(4-methoxyphenyl)-7-methylimidazo[1,2-a]pyridine-3-acetamide], the “Inhibition rate (%)” value ([1]; 1 × 10^−5M) was 94%, the “Inhibition rate (%)” value ([1]; 1 × 10^−7M) was 76% and the “Inhibition rate (%)” value ([1]; 1 × 10^−9M) was 0%. The melting point was 175 to 178 °C.
For `CCN(Cc1ccccn1)C(=O)Cc1c(-c2ccc(OC)cc2)nc2cc(C)ccn12.Cl` [Compound 20, N-ethyl-N-(2-pyridinylmethyl)-2-(4-methoxyphenyl)-7-methylimidazo[1,2-a]pyridine-3-acetamide.hydrochloride], the “Inhibition rate (%)” value ([1]; 1 × 10^−5M) was 61%, the “Inhibition rate (%)” value ([1]; 1 × 10^−7M) was 63% and the “Inhibition rate (%)” value ([1]; 1 × 10^−9M) was 0%. It also gave a melting point of 228 to 230 °C.
With `CCN(Cc1cccnc1)C(=O)Cc1c(-c2ccc(OC)cc2)nc2cc(C)ccn12.Cl` [Compound 21, N-ethyl-N-(3-pyridinylmethyl)-2-(4-methoxyphenyl)-7-methylimidazo[1,2-a]pyridine-3-acetamide.hydrochloride] the “Inhibition rate (%)” value ([1]; 1 × 10^−5M) was 43%, the “Inhibition rate (%)” value ([1]; 1 × 10^−7M) was 11% and the “Inhibition rate (%)” value ([1]; 1 × 10^−9M) was 0%. It also gave a melting point of 230 to 232 °C.
With `CCN(Cc1ccncc1)C(=O)Cc1c(-c2ccc(OC)cc2)nc2cc(C)ccn12.Cl` [Compound 22, N-ethyl-N-(4-pyridinylmethyl)-2-(4-methoxyphenyl)-7-methylimidazo[1,2-a]pyridine-3-acetamide.hydrochloride] the “Inhibition rate (%)” value ([1]; 1 × 10^−5M) was 63%, the “Inhibition rate (%)” value ([1]; 1 × 10^−7M) was 9% and the “Inhibition rate (%)” value ([1]; 1 × 10^−9M) was 4%. For the same compound, the melting point was 239 to 242 °C.
In the case of `COCCN(Cc1ccccn1)C(=O)Cc1c(-c2ccc(OC)cc2)nc2cc(C)ccn12.Cl` [Compound 23, N-(2-methoxyethyl)-N-(2-pyridinylmethyl)-2-(4-methoxyphenyl)-7-methylimidazo[1,2-a]pyridine-3-acetamide.hydrochloride], the “Inhibition rate (%)” value ([1]; 1 × 10^−5M) is reported as 85%, the “Inhibition rate (%)” value ([1]; 1 × 10^−7M) is reported as 2% and the “Inhibition rate (%)” value ([1]; 1 × 10^−9M) is reported as 3%. The melting point was 214 to 216 °C (dec.).
With `COCCN(Cc1cccnc1)C(=O)Cc1c(-c2ccc(OC)cc2)nc2cc(C)ccn12.Cl` [Compound 24, N-(2-methoxyethyl)-N-(3-pyridinylmethyl)-2-(4-methoxyphenyl)-7-methylimidazo[1,2-a]pyridine-3-acetamide.hydrochloride] the “Inhibition rate (%)” value ([1]; 1 × 10^−5M) was 17%, the “Inhibition rate (%)” value ([1]; 1 × 10^−7M) was 3% and the “Inhibition rate (%)” value ([1]; 1 × 10^−9M) was 0%. For the same compound, the melting point was 243 to 245 °C.
For `CN1C(=O)CN=C(c2ccc(Cl)cc2)c2cc(Cl)ccc21` [Compound R05-4864, 4′-chlorodiazepam, reference compound], the “Inhibition rate (%)” value ([1]; 1 × 10^−5M) was 100%, the “Inhibition rate (%)” value ([1]; 1 × 10^−7M) was 82% and the “Inhibition rate (%)” value ([1]; 1 × 10^−9M) was 57%.
